Measurements: US10206394B2, “Herbicidal compounds” (Syngenta Participations AG, priority 2014, dated 2019)
Like-named read-outs stand apart in the source and are kept apart here.

Columns and labels:
Experiment in all cases: Glasshouse assay for herbicidal activity (pre- and post-emergence), percentage phytotoxicity
Format in all cases: in vivo
[1] = tested on: Alopecurus myosuroides (ALOMY); conditions: Alopecurus myosuroides
Procedure, shortened: (§1)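 Percent injury was estimated by eye on a scale where 0% means no damage and 100% complete damage. Ratings came 15 DAA post-emergence and 20 DAA pre-emergence, with plants held under 16 h light and 65% humidity at 24/18 °C or 20/16 °C day/night.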

Avena fatua (AVEFA) = conditions: Avena fatua
Procedure, shortened: as §1

[2] = tested on: Echinochloa crus-galli (ECHCG); conditions: Echinochloa crus-galli
Procedure, shortened: as §1

Lolium perenne (LOLPE) = conditions: Lolium perenne
Procedure, shortened: as §1

[3] = post-emergence, 360 h, Rate 250 g/ha, post-emergence, assessed visually 15 DAA, 100%=total damage, 0%=no damage, read-out: Post-emergence herbicidal activity (percentage phytotoxicity) ALOMY POST
[4] = pre-emergence, 480 h, Rate 250 g/ha, pre-emergence, assessed visually 20 DAA, 100%=total damage, 0%=no damage, read-out: Pre-emergence herbicidal activity (percentage phytotoxicity) ALOMY PRE
[5] = post-emergence, 360 h, Rate 250 g/ha, post-emergence, assessed visually 15 DAA, 100%=total damage, 0%=no damage, read-out: Post-emergence herbicidal activity (percentage phytotoxicity) AVEFA POST
[6] = pre-emergence, 480 h, Rate 250 g/ha, pre-emergence, assessed visually 20 DAA, 100%=total damage, 0%=no damage, read-out: Pre-emergence herbicidal activity (percentage phytotoxicity) AVEFA PRE
[7] = post-emergence, 360 h, Rate 250 g/ha, post-emergence, assessed visually 15 DAA, 100%=total damage, 0%=no damage, read-out: Post-emergence herbicidal activity (percentage phytotoxicity) ECHCG POST
[8] = pre-emergence, 480 h, Rate 250 g/ha, pre-emergence, assessed visually 20 DAA, 100%=total damage, 0%=no damage, read-out: Pre-emergence herbicidal activity (percentage phytotoxicity) ECHCG PRE
[9] = post-emergence, 360 h, Rate 250 g/ha, post-emergence, assessed visually 15 DAA, 100%=total damage, 0%=no damage, read-out: Post-emergence herbicidal activity (percentage phytotoxicity) LOLPE POST
[10] = pre-emergence, 480 h, Rate 250 g/ha, pre-emergence, assessed visually 20 DAA, 100%=total damage, 0%=no damage, read-out: Pre-emergence herbicidal activity (percentage phytotoxicity) LOLPE PRE
[11] = post-emergence, 360 h, 250 g/ha, post-emergence, 15 DAA, visual assessment (100%=total damage, 0%=no damage), read-out: Post-emergence herbicidal activity (percentage phytotoxicity) ALOMY POST
[12] = pre-emergence, 480 h, 250 g/ha, pre-emergence, 20 DAA, visual assessment (100%=total damage, 0%=no damage), read-out: Pre-emergence herbicidal activity (percentage phytotoxicity) ALOMY PRE
[13] = post-emergence, 360 h, 250 g/ha, post-emergence, 15 DAA, visual assessment (100%=total damage, 0%=no damage), read-out: Post-emergence herbicidal activity (percentage phytotoxicity) AVEFA POST
[14] = pre-emergence, 480 h, 250 g/ha, pre-emergence, 20 DAA, visual assessment (100%=total damage, 0%=no damage), read-out: Pre-emergence herbicidal activity (percentage phytotoxicity) AVEFA PRE
[15] = post-emergence, 360 h, 250 g/ha, post-emergence, 15 DAA, visual assessment (100%=total damage, 0%=no damage), read-out: Post-emergence herbicidal activity (percentage phytotoxicity) ECHCG POST
[16] = pre-emergence, 480 h, 250 g/ha, pre-emergence, 20 DAA, visual assessment (100%=total damage, 0%=no damage), read-out: Pre-emergence herbicidal activity (percentage phytotoxicity) ECHCG PRE
[17] = post-emergence, 360 h, 250 g/ha, post-emergence, 15 DAA, visual assessment (100%=total damage, 0%=no damage), read-out: Post-emergence herbicidal activity (percentage phytotoxicity) LOLPE POST
[18] = pre-emergence, 480 h, 250 g/ha, pre-emergence, 20 DAA, visual assessment (100%=total damage, 0%=no damage), read-out: Pre-emergence herbicidal activity (percentage phytotoxicity) LOLPE PRE
[19] = post-emergence, 360 h, Rate 250 g/ha, post-emergence, visual assessment 15 DAA, 100%=total damage, 0%=no damage, read-out: Post-emergence herbicidal activity (percentage phytotoxicity) ALOMY POST
[20] = pre-emergence, 480 h, Rate 250 g/ha, pre-emergence, visual assessment 20 DAA, 100%=total damage, 0%=no damage, read-out: Pre-emergence herbicidal activity (percentage phytotoxicity) ALOMY PRE
[21] = post-emergence, 360 h, Rate 250 g/ha, post-emergence, visual assessment 15 DAA, 100%=total damage, 0%=no damage, read-out: Post-emergence herbicidal activity (percentage phytotoxicity) AVEFA POST
[22] = pre-emergence, 480 h, Rate 250 g/ha, pre-emergence, visual assessment 20 DAA, 100%=total damage, 0%=no damage, read-out: Pre-emergence herbicidal activity (percentage phytotoxicity) AVEFA PRE
[23] = post-emergence, 360 h, Rate 250 g/ha, post-emergence, visual assessment 15 DAA, 100%=total damage, 0%=no damage, read-out: Post-emergence herbicidal activity (percentage phytotoxicity) ECHCG POST
[24] = pre-emergence, 480 h, Rate 250 g/ha, pre-emergence, visual assessment 20 DAA, 100%=total damage, 0%=no damage, read-out: Pre-emergence herbicidal activity (percentage phytotoxicity) ECHCG PRE
[25] = post-emergence, 360 h, Rate 250 g/ha, post-emergence, visual assessment 15 DAA, 100%=total damage, 0%=no damage, read-out: Post-emergence herbicidal activity (percentage phytotoxicity) LOLPE POST
[26] = pre-emergence, 480 h, Rate 250 g/ha, pre-emergence, visual assessment 20 DAA, 100%=total damage, 0%=no damage, read-out: Pre-emergence herbicidal activity (percentage phytotoxicity) LOLPE PRE

Cc1cc(C)c(C2C(=O)CC(CC(=O)NCCC#N)C2=O)c(C)c1 (centres unmarked) [Compound A86]
pest or weed control at 250 g/ha [1, 3]: 30%
pest or weed control at 250 g/ha [1, 4]: 0%
pest or weed control at 250 g/ha (Avena fatua (AVEFA); [5]): 40%
pest or weed control at 250 g/ha (Avena fatua (AVEFA); [6]): 0%
pest or weed control at 250 g/ha [2, 7]: 80%
pest or weed control at 250 g/ha [2, 8]: 20%
pest or weed control at 250 g/ha (Lolium perenne (LOLPE); [9]): 50%
pest or weed control at 250 g/ha (Lolium perenne (LOLPE); [10]): 10%

Cc1cc(-c2ncc(Cl)cn2)cc(C)c1C1C(=O)C[C@@H](CC(=O)NC(C)(C)C)C1=O (some centres unmarked) [Compound B49]
pest or weed control at 250 g/ha [1, 11]: 100%
pest or weed control at 250 g/ha [1, 12]: 100%
pest or weed control at 250 g/ha (Avena fatua (AVEFA); [13]): 100%
pest or weed control at 250 g/ha (Avena fatua (AVEFA); [14]): 90%
pest or weed control at 250 g/ha [2, 15]: 100%
pest or weed control at 250 g/ha [2, 16]: 100%
pest or weed control at 250 g/ha (Lolium perenne (LOLPE); [17]): 100%
pest or weed control at 250 g/ha (Lolium perenne (LOLPE); [18]): 100%

Cc1cc(-c2ncc(Cl)cn2)cc(C)c1C1C(=O)CC(CC(=O)NC/C=C/Cl)C1=O (centres unmarked) [Compound B352]
pest or weed control at 250 g/ha [1, 19]: 100%
pest or weed control at 250 g/ha [1, 20]: 100%
pest or weed control at 250 g/ha (Avena fatua (AVEFA); [21]): 90%
pest or weed control at 250 g/ha (Avena fatua (AVEFA); [22]): 90%
pest or weed control at 250 g/ha [2, 23]: 100%
pest or weed control at 250 g/ha [2, 24]: 100%
pest or weed control at 250 g/ha (Lolium perenne (LOLPE); [25]): 100%
pest or weed control at 250 g/ha (Lolium perenne (LOLPE); [26]): 90%

Cc1cc(-c2ccc(Cl)cn2)cc(C)c1C1C(=O)CC(CC(=O)N(C)C(C)C)C1=O (centres unmarked) [Compound B371]
pest or weed control at 250 g/ha [1, 19]: 100%
pest or weed control at 250 g/ha [1, 20]: 90%
pest or weed control at 250 g/ha (Avena fatua (AVEFA); [21]): 100%
pest or weed control at 250 g/ha (Avena fatua (AVEFA); [22]): 90%
pest or weed control at 250 g/ha [2, 23]: 100%
pest or weed control at 250 g/ha [2, 24]: 100%
pest or weed control at 250 g/ha (Lolium perenne (LOLPE); [25]): 100%
pest or weed control at 250 g/ha (Lolium perenne (LOLPE); [26]): 100%

Cc1cc(C)c(C2C(=O)CC(CC(=O)NCc3ccoc3)C2=O)c(C)c1 (centres unmarked) [Compound A99]
pest or weed control at 250 g/ha [1, 3]: 60%
pest or weed control at 250 g/ha [1, 4]: 20%
pest or weed control at 250 g/ha (Avena fatua (AVEFA); [5]): 30%
pest or weed control at 250 g/ha (Avena fatua (AVEFA); [6]): 0%
pest or weed control at 250 g/ha [2, 7]: 0%
pest or weed control at 250 g/ha [2, 8]: 0%
pest or weed control at 250 g/ha (Lolium perenne (LOLPE); [9]): 70%
pest or weed control at 250 g/ha (Lolium perenne (LOLPE); [10]): 20%

C#Cc1cccc(CNC(=O)CC2CC(=O)C(c3c(C)cc(C)cc3C)C2=O)c1 (centres unmarked) [Compound B86]
pest or weed control at 250 g/ha [1, 11]: 70%
pest or weed control at 250 g/ha [1, 12]: 70%
pest or weed control at 250 g/ha (Avena fatua (AVEFA); [13]): 100%
pest or weed control at 250 g/ha (Avena fatua (AVEFA); [14]): 60%
pest or weed control at 250 g/ha [2, 15]: 90%
pest or weed control at 250 g/ha [2, 16]: 80%
pest or weed control at 250 g/ha (Lolium perenne (LOLPE); [17]): 100%
pest or weed control at 250 g/ha (Lolium perenne (LOLPE); [18]): 90%

Cc1cc(-c2ncc(Cl)cc2F)cc(C)c1C1C(=O)CC(CC(=O)NCc2ncc(C(F)(F)F)cc2Cl)C1=O (centres unmarked) [Compound A113]
pest or weed control at 250 g/ha [1, 3]: 100%
pest or weed control at 250 g/ha [1, 4]: 80%
pest or weed control at 250 g/ha (Avena fatua (AVEFA); [5]): 100%
pest or weed control at 250 g/ha (Avena fatua (AVEFA); [6]): 90%
pest or weed control at 250 g/ha [2, 7]: 100%
pest or weed control at 250 g/ha [2, 8]: 100%
pest or weed control at 250 g/ha (Lolium perenne (LOLPE); [9]): 100%
pest or weed control at 250 g/ha (Lolium perenne (LOLPE); [10]): 90%
